Data published in patent US20220125839A1, “COMBINATION OF T-CELL THERAPY AND TARGETED THERAPY FOR TREATING THERAPY-RESISTANT MELANOMA WITH MUTATIONS IN THE BRAF GENE” (H. LEE MOFFITT CANCER CENTER AND RESEARCH INSTITUTE, INC., priority 2019, published 2022).

Tests used:
M6PR = assay: IHC staining of M6PR in WM35 tumors in NOD/SCID mice; format: in vivo; settings: for tumor M6PR levels by immunohistochemistry: 50 mg/kg oral gavage
Protocol: In order to establish xenograft models, cultured WM35, WM35-BR, WM983B-BR-pAHygCMV2 and WM983B-BR-M6PR/IGF2R cells were harvested, suspended in sterile PBS, mixed in 2:1 ratio with Matrigel and injected subcutaneously into the left flank of mice (1-3×10^6 cells per mouse). PLX4720 was administered daily at dose 50 mg/kg for 10 days via oral gavage. As a control, mice treated with vehicle alone (2% DMSO, 50% PEG 300, 5% Tween 80) were used. Treatments were started when tumors were 0.5-0.8 cm in diameter.
Tumor tissues were harvested, fixed overnight with 4% paraformaldehyde (Electron Microscopy Science; Cat. no. 15710) at 4° C., embedded in paraffin blocks and 4-5 μm thick sections of the tissue were prepared and stained with polyclonal goat M6PR/IGF2R primary antibody (R&D Systems; Cat. no. AF2447; 5 μg/mL per samples) O/N at 4° C. Biotinylated 2nd antibody in 1:200 dilution was used for 30 min at RT followed by application of ABC solution ([…] and biotinylated horseradish peroxidase) for 30 min at RT. DAB 0.05% solution was applied for 3-4 min at RT. Hematoxylin was used for counterstaining the nucleus. Images were analyzed using Nis-Elements Ar (Advanced Research) Nikon 80i Upright Microscope with 40×N.A. objective. Each slide was scanned, images were manually captured at separate X, Y locations and a multipoint ND document was created point by point. A threshold value was defined for each image (for brown M6PR staining) using the single point selection tool. Results were exported to Excel for further analysis. (Acquisition Software: Nikon NIS-Elements Br (Basic research) 4.0, Camera Name: DS-Ri1-U3 40× Objective, Numerical Aperture: 0.95, Camera Settings: Format: 1280×1024 Fine, Exposure: ME 80 ms (−+0.0 EV))
Since hypoxia is an important component of the tumor microenvironment, we evaluated the effect of hypoxia on PLX4720-induced M6PR up-regulation. WM983B melanoma cells were exposed to 0.5% 02 during PLX4720 treatment. […] To understand the effect of PLX4720 on M6PR expression in vivo, WM35 tumor cells were injected s.c. into immune deficient NOD/SCID mice. When tumors reached 0.5-0.8 cm in diameter, mice were treated with vehicle or 50 mg/kg PLX4720 by oral gavage for 3 or 5 consecutive days.

WM983B cells = assay: CTL assay (51Cr release), WM983B targets with HLA-A1+ TILs; format: cell-based, human; settings: WM983B treated ON with PLX4720
Protocol: For Chromium (^51Cr) release assays, 1×10^6 human melanoma cells were incubated with 100 μCi ^51Cr (Perkin-Elmer; Cat. no. NEZ030S001MC; 1 mCi/mL) at 37° C. for 60 minutes, washed 3 times with sterile PBS and plated into 96-well round-bottom plates at a cell density of 1×10^4 tumor target cells/well. Target cells were incubated with human CD8+ TILs in triplicates at the indicated effector/target ([…]) ratios in 200 μl culture medium at 37° C. in a humidified CO2 incubator. After incubation, plates were centrifuged, 50 μl supernatant was harvested from each well and ^51Cr release was measured using a gamma counter. The percent specific lysis was calculated as follows: 100×[(experimental release−spontaneous release)/(maximum release−spontaneous release)]. As controls, T cells isolated from blood of healthy donor were used.
To investigate if M6PR has a direct role in the increased uptake of GrzB induced by PLX4720, we generated a WM983B-M6PR-KO cell line lacking M6PR expression, using Crispr/Cas9 technology. Deletion of M6PR was confirmed by western blotting (FIG. 8A) and flow cytometry (FIG. 8B). WM983B and WM983B-M6PR-KO cells were cultured with DMSO or different concentrations of PLX4720. […] We evaluated expression of MHC class I, MHC class II, PDL1, and FasL on tumor cells with overexpression or deletion of M6PR.

## CCCS(=O)(=O)Nc1ccc(F)c(C(=O)c2c[nH]c3ncc(Cl)cc23)c1F [PLX4720]
M6PR; 3 days after start of the treatment
  tumor M6PR levels by immunohistochemistry: significant increase in tumor M6PR levels
M6PR; 5 days after start (2 days later)
  tumor M6PR levels by immunohistochemistry: further increased
M6PR; 3 days after finish of the treatment
  tumor M6PR expression after finish of the treatment: remained high
M6PR; day 6 after finish
  tumor M6PR expression after finish of the treatment: slight decrease
M6PR; day 9 after finishing the treatment
  tumor M6PR expression after finish of the treatment: returned to the pretreatment level
WM983B cells
  killing of tumor cells by TILs: significantly (p<0.05) increased killing
